Consider one sequence from publication PMC4143171 (Journal of nuclear medicine : official publication, Society …, 2010).

The target in this test is integrin receptors expressed on surface of U87MG glioblastoma cells (Homo sapiens, UniProt P05106+P06756). Kind of test: U87MG competition binding assay.

Bridges are numbered along the chain shown (N, C = ends). Where no end group is shown, it is not given here.

“ECESGPCCRNCKFLKEGTICKRARGDDMDDYCNGKTCDCPRNPHKGPAT (disulfide 2-11, 7-32, 8-37, 20-39 (inferred)) [echistatin]”: the IC50 (commonly the concentration needed to halve the response being measured) worked out at 3.3 ± 0.6 nM.
